Laboratory results reported in publication PMC4186430, “Modeling of age-dependent amyloid accumulation and γ-secretase inhibition of soluble and insoluble Aβ in a transgenic mouse model of amyloid deposition” (Pharmacology Research & Perspectives, 2013).

How the values were obtained:
total Aβ40 = test system: total Aβ40; set-up: method as in Best et al. [2007]; conditions: 12-month-old Tg2576 mice; ref Best et al. [2007]; cited from earlier work
soluble Aβ40 production = assay: PKPD turnover model of MRK-560 inhibition of soluble Aβ40 production (models A, B, C); assay type: in vivo, Tg2576 transgenic mice; conditions: for IC50: Mus musculus
Protocol: In a second step, drug effect data were added to the AP analysis in order to develop an integrated PKPD model that incorporated both age-dependent AP and an age-dependent drug effect. To this end, the initially developed logistic model (eq. 3) was combined with a turnover model (Dayneka et al. [1993]; Jusko and Ko [1994]). This part of the analysis was only performed for soluble and insoluble Aβ40, as drug effect data for Aβ42 were not available from all studies. In this approach, the age-dependent AP causing an increase in soluble Aβ40 production (Kin,sol) was described following equations (4 and 5): [drawing 4] (4) [drawing 5] (5) in which Kin,sol and kout,sol corresponded to the production and loss of soluble Aβ40, respectively.
The inhibitory effect of MRK-560 on soluble Aβ40 was modeled using a turnover model (eq. 4), where the production of soluble Aβ40 was inhibited by the drug concentration. The model took into account the time delay between changes in plasma concentration of the drug and changes insoluble Aβ40 levels. Three types of drug effect models were evaluated: (A) absolute (eq. 6), (B) relative change from the baseline (eq. 7), and (C) modified relative change from the baseline (eq. 7). In model B the IC50(solAβ40) was constant, while in model C it was dependent on the soluble Aβ40 levels via a linear function as shown in equation (8).
Kin,sol corresponded to the age-dependent production of soluble Aβ40, kout,sol corresponded to the loss of soluble Aβ40, Imax was a maximum drug-induced soluble Aβ40 reduction (either absolute or relative reduction from the baseline for eqs. 6 and 7, respectively), CBr represented the brain concentrations, IC50 was a concentration which induced half of the maximum inhibition, while AP corresponded to the AP, described using equation (3). Additionally, parameter SL represented a slope of the linear relationship between absolute Aβ40 levels and IC50.
Changes in soluble Aβ40 were assumed to change the production of insoluble Aβ40. This effect was modeled using a turnover model and was described using equations (9–11): [drawing 9] (9) [drawing 10] (10) [drawing 11] (11) where Kin,insol was the production of insoluble Aβ40, which was dependent on the soluble Aβ40 levels, kout,insol was the loss of insoluble Aβ40, and SCALE was the scaling function between soluble and insoluble Aβ40 levels. Similar as in equation (3), α2 from equation (11) was the upper asymptote in the logistic function, ECi2 was a point of inflection and P2 was the slope parameter. A graphical representation of the PKPD model can be found in Figure 1.
All modeling analyses were performed in NONMEM (version 7.1.0, ICON Development Solutions, Ellicott City, MD [Schoemaker and Cohen [1996]]). The best models were chosen based on the analysis of their objective function, the precision of parameter estimates, and goodness-of-fit plots. The analysis of NONMEM output was performed using R software (R Development Core Team [2008]) and Xpose4 package (Jonsson and Karlsson [1998]). The 90% prediction intervals were calculated using the visual predictive check (VPC) as described by (Post et al. [2008]). In brief, 1000 simulations of the data were performed using final parameter estimates and 5th, 50th, and 95th percentiles were calculated.

[1] = model A (absolute drug effect), estimate (SE%)

- IC50 (soluble Aβ40 production; [1]): 90 nM
- IC50 (soluble Aβ40 production; model B (relative drug effect, constant IC50), estimate (SE%)): 190 nM
- IC50 (soluble Aβ40 production; model C, 5-month-old Tg2576 mice, brain concentration): 110 nM
- IC50 (soluble Aβ40 production; model C, 25-month-old Tg2576 mice, brain concentration): 12000 nM
Structure (SMILES): O=S(=O)(NC1CCC(c2cc(F)ccc2F)(S(=O)(=O)c2ccc(Cl)cc2)CC1)C(F)(F)F (stereo not drawn) [MRK-560, N-[cis-4-[(4-chlorophenyl)-sulfonyl]-4-(2,5-difluorophenyl)cyclohexyl]-1,1,1-trifluoromethanesulfonamide]
- decrease in total Aβ40 levels (total Aβ40): 43%
- Imax (soluble Aβ40 production; final model (model C)): 86%
- Imax (soluble Aβ40 production; [1]): 59 (4) pg/mg
- Imax (soluble Aβ40 production; model B (relative drug effect), estimate (SE%)): 88 (10) %
